# Data reported in ChEMBL document CHEMBL4265889, “Design and synthesis of tetrahydropyridopyrimidine based Toll-Like Receptor (TLR) 7/8 dual agonists” (Bioorg Med Chem Lett, 2018).
# How the values were obtained:
# [1] = target: T1, Toll-like receptor 7 (Homo sapiens) (UniProt Q9NYK1); assay: Agonist activity at human TLR7 expressed in HEK293 cells after 6 hrs by NFkappaB-luciferase reporter gene assay; assay type: cell-based
# T1 sequence (whole entry): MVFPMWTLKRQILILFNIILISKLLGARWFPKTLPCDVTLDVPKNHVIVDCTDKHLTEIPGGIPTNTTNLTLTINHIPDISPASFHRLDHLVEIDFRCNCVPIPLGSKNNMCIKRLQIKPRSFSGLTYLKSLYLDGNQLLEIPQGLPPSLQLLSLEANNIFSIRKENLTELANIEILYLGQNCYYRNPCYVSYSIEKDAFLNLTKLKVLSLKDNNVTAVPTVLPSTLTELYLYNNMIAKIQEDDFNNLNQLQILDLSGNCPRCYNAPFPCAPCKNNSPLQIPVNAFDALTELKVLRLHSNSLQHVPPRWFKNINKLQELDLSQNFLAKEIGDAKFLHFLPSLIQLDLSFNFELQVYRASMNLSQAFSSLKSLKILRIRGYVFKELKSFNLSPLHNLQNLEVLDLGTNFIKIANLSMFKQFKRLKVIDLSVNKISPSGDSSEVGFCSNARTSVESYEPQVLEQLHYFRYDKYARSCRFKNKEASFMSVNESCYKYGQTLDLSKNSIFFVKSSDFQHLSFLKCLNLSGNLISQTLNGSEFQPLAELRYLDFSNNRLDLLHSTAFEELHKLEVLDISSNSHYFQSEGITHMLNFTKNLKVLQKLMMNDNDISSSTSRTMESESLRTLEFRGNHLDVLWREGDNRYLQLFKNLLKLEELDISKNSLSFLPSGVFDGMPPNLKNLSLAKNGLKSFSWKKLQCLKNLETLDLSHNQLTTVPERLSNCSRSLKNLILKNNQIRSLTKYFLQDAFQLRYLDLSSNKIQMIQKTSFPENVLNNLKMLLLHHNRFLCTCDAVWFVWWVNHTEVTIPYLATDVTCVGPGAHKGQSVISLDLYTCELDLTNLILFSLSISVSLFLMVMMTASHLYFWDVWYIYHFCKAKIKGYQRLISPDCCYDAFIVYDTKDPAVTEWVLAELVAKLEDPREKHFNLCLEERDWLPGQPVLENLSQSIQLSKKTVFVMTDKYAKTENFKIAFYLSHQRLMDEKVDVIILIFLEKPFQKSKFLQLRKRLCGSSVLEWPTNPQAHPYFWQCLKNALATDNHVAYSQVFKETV
# [2] = target: T2, Toll-like receptor 8 (Homo sapiens) (UniProt Q9NR97); assay: Agonist activity at human TLR8 expressed in HEK293 cells after 6 hrs by NFkappaB-luciferase reporter gene assay; assay type: cell-based
# T2 sequence (whole entry): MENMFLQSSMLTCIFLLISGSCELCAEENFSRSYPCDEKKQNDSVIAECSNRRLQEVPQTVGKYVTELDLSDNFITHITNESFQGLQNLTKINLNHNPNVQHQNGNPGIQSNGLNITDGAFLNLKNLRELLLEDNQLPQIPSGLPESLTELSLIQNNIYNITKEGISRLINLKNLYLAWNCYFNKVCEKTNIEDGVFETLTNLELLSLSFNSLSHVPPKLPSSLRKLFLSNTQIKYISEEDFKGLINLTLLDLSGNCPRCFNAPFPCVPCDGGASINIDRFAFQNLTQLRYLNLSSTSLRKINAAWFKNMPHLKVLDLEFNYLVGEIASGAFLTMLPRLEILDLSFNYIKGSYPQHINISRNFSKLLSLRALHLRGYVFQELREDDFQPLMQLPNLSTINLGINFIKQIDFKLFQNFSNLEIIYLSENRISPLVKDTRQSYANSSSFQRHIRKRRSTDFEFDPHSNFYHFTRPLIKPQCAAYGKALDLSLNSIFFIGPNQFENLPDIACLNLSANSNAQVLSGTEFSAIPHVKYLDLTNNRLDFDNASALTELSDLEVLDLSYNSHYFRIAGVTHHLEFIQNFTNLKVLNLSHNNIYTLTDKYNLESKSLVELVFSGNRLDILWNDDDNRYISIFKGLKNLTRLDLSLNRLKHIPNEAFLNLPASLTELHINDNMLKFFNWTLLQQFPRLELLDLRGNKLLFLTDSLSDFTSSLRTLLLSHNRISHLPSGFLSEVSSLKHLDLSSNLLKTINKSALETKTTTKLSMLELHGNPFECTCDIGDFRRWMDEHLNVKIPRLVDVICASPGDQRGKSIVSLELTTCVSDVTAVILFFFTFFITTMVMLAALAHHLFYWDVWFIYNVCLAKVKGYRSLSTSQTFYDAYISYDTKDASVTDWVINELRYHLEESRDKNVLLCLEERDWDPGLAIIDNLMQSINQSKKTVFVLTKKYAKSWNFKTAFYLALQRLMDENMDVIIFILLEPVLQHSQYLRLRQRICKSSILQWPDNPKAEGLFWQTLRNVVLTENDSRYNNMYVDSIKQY
# [3] = Cytotoxicity against HEK293 cells transfected with the CMV-TLR7 construct assessed as reduction in cell viability after 6 hrs by ATPlite assay; assay type: cell-based; conditions: human
# Homo sapiens = species on record: Homo sapiens; assay: Selectivity index, ratio of MEC for human TLR8 to MEC for human TLR7
# [4] = target: T1, Toll-like receptor 7 (Homo sapiens); assay: Agonist activity at TLR7 in human PBMC assessed as suppression of HCV replicon replication in human HuH7 luc/neo cells harboring RNA encoding bicistronic expression construct comprising wild type HCV type 1b NS3-NS5B regions exposed to conditioned media from compound treated PBMCs after 24 hrs by luciferase reporter gene assay; assay type: cell-based
# [5] = target: Voltage-gated inwardly rectifying potassium channel KCNH2 (Homo sapiens, UniProt Q12809); assay: Displacement of 3H-dofetilide from human ERG
# [6] = Drug metabolism in mouse liver microsomes at 1 uM after 15 mins; assay type: ADME, microsome; conditions: read-out: Drug metabolism
# [7] = Drug metabolism in human liver microsomes at 1 uM after 15 mins; assay type: ADME, microsome; conditions: read-out: Drug metabolism
# Voltage-gated inwardly rectifying potassium channel KCNH2, sequence (Q12809 whole entry): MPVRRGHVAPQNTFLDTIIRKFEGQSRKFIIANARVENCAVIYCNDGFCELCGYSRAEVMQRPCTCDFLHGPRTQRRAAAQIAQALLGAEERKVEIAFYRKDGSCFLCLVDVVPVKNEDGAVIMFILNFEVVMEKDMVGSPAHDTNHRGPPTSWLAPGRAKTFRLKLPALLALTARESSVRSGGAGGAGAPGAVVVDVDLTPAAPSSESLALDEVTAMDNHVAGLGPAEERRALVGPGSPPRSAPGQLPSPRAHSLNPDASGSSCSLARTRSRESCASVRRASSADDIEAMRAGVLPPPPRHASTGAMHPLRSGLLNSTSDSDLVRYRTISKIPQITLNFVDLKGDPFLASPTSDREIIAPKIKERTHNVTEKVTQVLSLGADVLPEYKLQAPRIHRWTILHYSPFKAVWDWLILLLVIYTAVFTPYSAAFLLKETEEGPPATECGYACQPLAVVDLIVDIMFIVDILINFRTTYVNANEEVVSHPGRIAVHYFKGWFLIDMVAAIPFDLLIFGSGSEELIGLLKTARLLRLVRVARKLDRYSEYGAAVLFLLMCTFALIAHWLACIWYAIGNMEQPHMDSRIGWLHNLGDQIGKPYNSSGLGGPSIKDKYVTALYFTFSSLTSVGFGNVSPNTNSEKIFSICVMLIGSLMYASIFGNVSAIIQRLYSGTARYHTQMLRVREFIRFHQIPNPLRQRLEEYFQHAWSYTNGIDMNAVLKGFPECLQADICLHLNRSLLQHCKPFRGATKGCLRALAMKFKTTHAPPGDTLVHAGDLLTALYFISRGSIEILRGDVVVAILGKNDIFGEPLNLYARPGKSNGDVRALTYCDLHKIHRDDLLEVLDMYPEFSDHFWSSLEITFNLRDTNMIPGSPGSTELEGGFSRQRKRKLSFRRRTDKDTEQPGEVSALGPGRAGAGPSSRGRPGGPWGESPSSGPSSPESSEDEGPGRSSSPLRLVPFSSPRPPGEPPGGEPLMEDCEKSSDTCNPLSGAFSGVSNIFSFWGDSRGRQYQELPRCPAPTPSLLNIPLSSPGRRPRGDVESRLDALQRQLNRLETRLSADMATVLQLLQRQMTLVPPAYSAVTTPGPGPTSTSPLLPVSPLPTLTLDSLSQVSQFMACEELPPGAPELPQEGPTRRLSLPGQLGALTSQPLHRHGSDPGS
SMILES,MEC [1],MEC [2],CC50 at 6 h [3],Selectivity Index (Homo sapiens),MEC [4],IC50 [5],"metabolised at 0.25 h, 1 µM [6]","metabolised at 0.25 h, 1 µM [7]"
CCCCNc1nc(N)nc2c1CCN(C(=O)c1ccccc1)C2,3.9 µM,0.8 µM,> 24 µM,5,–,–,–,–
CCCCNc1nc(N)nc2c1CN(C(=O)c1csc(C)n1)CC2,2 µM,1.8 µM,> 24 µM,–,0.53 µM,1.3 µM,88%,–
CCCCNc1nc(N)nc2c1CN(C(=O)C1CCC1)CC2,0.8 µM,0.4 µM,> 24 µM,–,0.23 µM,–,–,–
CCCCNc1nc(N)nc2c1CN(C(=O)c1cccs1)CC2,0.2 µM,0.4 µM,> 24 µM,–,0.07 µM,–,99%,–
CCCCNc1nc(N)nc2c1CN(C(=O)CC)CC2,2.3 µM,0.4 µM,> 24 µM,–,0.53 µM,–,–,–
CCCCNc1nc(N)nc2c1CN(Cc1ccc(OC(F)(F)F)cc1)CC2,4.7 µM,0.24 µM,> 24 µM,–,0.52 µM,–,–,–
CCCCNc1nc(N)nc2c1CN(C(=O)c1cnccn1)CC2,3.7 µM,2.2 µM,> 24 µM,–,2.38 µM,–,–,–
CCCCNc1nc(N)nc2c1CN(Cc1ccc(OC)cc1)CC2,2.1 µM,0.08 µM,> 24 µM,–,0.17 µM,–,–,–
CCCCNc1nc(N)nc2c1CN(C(=O)c1csc(N)n1)CC2,8 µM,6.9 µM,> 24 µM,–,1.05 µM,–,–,–
CCCC[C@@H](CCO)Nc1nc(N)nc2c1CN(C(=O)c1cccs1)CC2,0.2 µM,1.7 µM,> 24 µM,–,0.2 µM,6.9 µM,90%,37%
CCCCNc1nc(N)nc2c1CN(Cc1ccco1)CC2,3.7 µM,0.08 µM,> 24 µM,–,0.07 µM,–,–,–
CCC[C@@H](CCO)Nc1nc(N)nc2c1CN(C(=O)c1cccs1)CC2,0.2 µM,1.1 µM,> 24 µM,–,0.2 µM,7.6 µM,73%,22%
CCCC[C@@H](CCO)Nc1nc(N)nc2c1CN(C(=O)c1csc(C)n1)CC2,1 µM,6.6 µM,> 24 µM,–,0.2 µM,> 50 µM,71%,30%
CCCCNc1nc(N)nc2c1CN(Cc1ccncc1)CC2,5.2 µM,0.29 µM,> 24 µM,–,0.5 µM,–,–,–
CCCCNc1nc(N)nc2c1CN(C(=O)c1cscn1)CC2,1.2 µM,0.5 µM,> 24 µM,–,0.17 µM,–,–,–
CCCCNc1nc(N)nc2c1CN(C(=O)c1csnn1)CC2,0.9 µM,0.1 µM,> 24 µM,–,0.15 µM,–,–,–
CCCCNc1nc(N)nc2c1CN(Cc1c(Cl)cccc1Cl)CC2,2.4 µM,0.14 µM,> 24 µM,–,0.19 µM,–,–,–
CCCCNc1nc(N)nc2c1CN(C(=O)c1cnc(N)s1)CC2,2.1 µM,4.4 µM,> 24 µM,–,0.38 µM,–,–,–
CCCCNc1nc(N)nc2c1CN(Cc1cc(F)cc(F)c1)CC2,3.5 µM,0.23 µM,> 24 µM,–,0.53 µM,–,–,–
CCCCNc1nc(N)nc2c1CN(C(=O)c1cc(C)on1)CC2,0.8 µM,0.4 µM,> 24 µM,–,0.22 µM,–,–,–
CCCCNc1nc(N)nc2c1CN(Cc1cccnc1)CC2,3 µM,0.13 µM,> 24 µM,–,0.15 µM,–,–,–
CCCCNc1nc(N)nc2c1CN(C(=O)c1ccncc1)CC2,> 25 µM,> 25 µM,> 24 µM,–,3.56 µM,–,–,–
